For one series, the system named is thrips. Kind of series: Thrips kill test on isolated thrips and treated plants. It counts as in vivo. The source says: Obvious testing by using a loop and magnifier concluded that the Dragon Juice 50 kills 100% of the spider mites, even after 6 weeks in the refrigerator. […] The Inventor tested more H202 and the tea tree oil combinations.
Another series relates to plants. Kind of series: Plant size, produce and plant damage in indoor and outdoor gardens. The series is classed as in vivo. To be noted: more H202 and tea tree oil combinations added to the mix. As to the method: This product was tested in the Inventor's garden. At the time the garden was infested with spider mites and thrips. There were cob webs and major plant damage. The option was to destroy the garden. It seemed hopeless. […] Originally the solution was too strong, and it severely damaged the plants and killed every living thing on the plants as well as the plants. After going back and testing each of the ingredients separately (a few weeks at a time over the course of five years) the Inventor concluded how much of each ingredient to use per gallon. After that, the Inventor combined the sugars and started adding each ingredient while testing shelf life and refrigerator life of Dragon Juice 50. […] The concentrate variations have been tested in indoor and outdoor gardens. The results have been fantastic as all of the products produced have been getting outstanding customer approval for quality, and flavor. […] It also helps to keep the plant healthier from the stress of the concentrated oils. The salt (see below) is another last minute ingredient included after studying and talking with a state health inspector. The Inventor realized that the salt breaks down selenium in the water so the plant can use the nutrients and convert the use of sugars more effectively. As the H202 takes away microorganisms, the vitamins, and carbohydrates rebuild a healthy environment for the plants new growth. […]

These results are taken from patent US8956997B2, “Plant conditioner composition and method” (priority 2010, dated 2015).

As for `OO` [H202, hydrogen peroxide], the effect on thrips entry with thrips was “killed the thrips”. Besides, in the series with plants, the “plant damage (leaves)” value was “started burning the leaves”.
